In general, melting point refers to the temperature, or range, at which the solid turns liquid.

Turning to `CCCN(C)CCCCC1CCN(S(=O)(=O)c2ccc(C(F)(F)F)cc2)CC1` [Example 20.1, Methyl-propyl-{4-[1-(4-trifluoromethyl-benzenesulfonyl)-piperidin-4-yl]-butyl}-amine], the melting point was 73 to 74.8 °C.

These data come from patent US6964974B2, “2,3-oxidosqualene-lanosterol cyclase inhibitors” (Hoffmann-La Roche Inc., priority 2000, dated 2005).
